Tested on: tau-tau binding
Assay: Solid-phase tau-tau binding assay, tau Preparation 1 (WO96/30766)
Type: biochemical, human
Text: This point was further examined by studying the potency of typical aggregated tau ligands as tau-aggregation inhibitors. It has been shown previously that tau aggregation inhibitors (e.g. diaminophenothiazines) can be identified on the basis of inhibition of tau-tau binding in a solid-phase assay (WO 96/30766). […] Thus, although these compounds are potent ligands for tau within the PHF-core, they are at most weak inhibitors at the site required for inhibition of tau-tau binding.
Large-scale purification (1 liter bacterial culture) of tau fragments was carried out as described by Goedert and Jakes (1990, EMBO J., 9, 4225-4230), with minor modifications. Cells were disrupted by rapid freezing of the cell pellet in liquid nitrogen. The pellets were then suspended in buffer containing 50 mM PIPES, 1 mM dithiothreitol (DTT) (pH 6.8). The thermostable proteins in the supernatant were dialysed against PIPES/DTT, then applied to a column containing phosphocellulose equilibrated in the same buffer. […] Fractions were analysed by SDS-PAGE and both Coomassie staining and immunoblotting. […] Protein concentrations were measured by the Lowry method (Harrington C R (1990), “Lowry protein assay containing sodium dodecyl sulphate in microtitre plates for protein determinations on fractions from brain tissue”, Analytical Biochemistry 186: 285-287).

- inhibition of tau-tau binding: weak inhibitors of tau-tau binding
Structure (SMILES): Cc1ccc2sc(-c3ccc4sc(-c5ccc(N)cc5)nc4c3)nc2c1S(=O)(=O)[O-].[Na+] [primulin]

Source: patent US8097615B2, “Neurofibrillary labels” (Wista Laboratories Ltd., priority 2001, dated 2012)
